Where two headings read alike, the source gives them in different places.
Test system: monocistronic NK5.1 HCV replicon in Huh7 cells
Assay: HCV replicon assay, monocistronic replicon cell line
Type: cell-based, hepatitis C virus
Settings: Hepatitis C virus, read-out: Mono EC50 Median
Outline: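 Huh7 cells carrying the monocistronic NK5.1 replicon, seeded 24 h before dosing, were exposed to six-point half-log compound series (0.6% DMSO) for 3 days at 37 °C. Replicon RNA was quantified by TaqMan RT-PCR, normalised to GAPDH and compared with DMSO controls to derive EC50.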

[1] = Huh-7, monocistronic NK5.1 HCV replicon in Huh7 cells, median value
[2] = Huh-7, 72 h, table T3 (compounds 471-640), monocistronic replicon in Huh7 cells, 3 days incubation, HCV RNA/GAPDH RNA by TaqMan RT-PCR
[3] = Huh-7, 72 h, Table 1, monocistronic replicon in Huh7 cells, 3 days incubation, HCV RNA/GAPDH RNA by TaqMan RT-PCR

Row | SMILES | EC50 [1] | EC50 [3] | further results
1 | COc1ccccc1-c1nnc(-c2ccccc2F)o1 [Compound 326, 2-(2-Fluoro-phenyl)-5-(2-methoxy-phenyl)-[1,3,4]oxadiazole] | > 32 µM |  | 
2 | Cn1nc(-c2ccccn2)nc1-c1cc(O)ccc1O [Compound 604, 4-Hydroxy-2-(2-methyl-5-pyridin-2-yl-2H-[1,2,4]triazol-3-yl)-phenol] |  |  | EC50 [2]: 37.6 µM
3 | COc1ccc(-c2nc(-c3cnccc3C(F)(F)F)n[nH]2)c(O)c1 [Compound 421, 5-Methoxy-2-[5-(4-trifluoromethyl-pyridin-3-yl)-2H-[1,2,4]triazol-3-yl]-phenol] | > 19 µM |  | 
4 | O=[N+]([O-])c1ccc(O)c(-c2nc(-c3ccccn3)n[nH]2)c1 [Compound 352, 4-Nitro-2-(5-pyridin-2-yl-2H-[1,2,4]triazol-3-yl)-phenol] | 14 µM |  | 
5 | CC(C)(C)c1ccc(O)c(-c2nc(-c3cnccn3)n[nH]2)c1 [Compound 575, 4-tert-Butyl-2-(5-pyrazin-2-yl-2H-[1,2,4]triazol-3-yl)-phenol] |  |  | EC50 [2]: 9 µM
6 | Oc1ccc2ccccc2c1-c1nc(-c2ccoc2)no1 [Compound 285] | 11 µM |  | 
7 | COc1cccc(-c2nc(-c3nccc4ccccc34)no2)c1 [Compound 197, 1-[5-(3-Methoxy-phenyl)-[1,2,4]oxadiazol-3-yl]-isoquinoline] |  | > 32 µM | 
8 | Oc1ccc(Cl)cc1-c1nc(-c2nccc3ccccc23)no1 [Compound 198, 4-Chloro-2-(3-isoquinolin-1-yl-[1,2,4]oxadiazol-5-yl)-phenol] |  | > 32 µM | 
9 | Cc1ccc(O)c(-c2nc(-c3ncccc3C(F)(F)F)n[nH]2)c1 [Compound 540, 4-Methyl-2-[5-(3-trifluoromethyl-pyridin-2-yl)-2H-[1,2,4]triazol-3-yl]-phenol] |  |  | EC50 [2]: > 19 µM
10 | O=[N+]([O-])c1ccc(O)c(-c2nc(-c3ccc(C(F)(F)F)cn3)n[nH]2)c1 [Compound 508, 4-Nitro-2-[5-(5-trifluoromethyl-pyridin-2-yl)-2H-[1,2,4]triazol-3-yl]-phenol] |  |  | EC50 [2]: > 19 µM
11 | Cc1ccc(O)c(-c2nc(-c3cnccc3C(F)(F)F)n[nH]2)c1 [Compound 420, 4-Methyl-2-[5-(4-trifluoromethyl-pyridin-3-yl)-2H-[1,2,4]triazol-3-yl]-phenol] | 9.7 µM |  | 
12 | COc1ccc2ccccc2c1-c1nc(-c2ncccc2C)no1 [Compound 183] |  | > 32 µM | 
13 | CCCOc1ccc(O)c(-c2nc(-c3ncccc3C)no2)c1 [Compound 272, 2-[3-(3-Methyl-pyridin-2-yl)-[1,2,4]oxadiazol-5-yl]-4-propoxy-phenol] | > 32 µM |  | 
14 | COc1cccc(-c2nc(-c3ncccc3C)n[nH]2)c1 [Compound 458, 2-[5-(3-Methoxy-phenyl)-1H-[1,2,4]triazol-3-yl]-3-methyl-pyridine] | > 32 µM |  | 
15 | Cc1cccnc1-c1noc(-c2cccc([N+](=O)[O-])c2)n1 [Compound 181] |  | > 32 µM | 
16 | Cn1nc(-c2ccccn2)nc1-c1ccc(OCc2ccccc2)cc1O [Compound 600, 5-Benzyloxy-2-(2-methyl-5-pyridin-2-yl-2H-[1,2,4]triazol-3-yl)-phenol] |  |  | EC50 [2]: 5 µM
17 | CCOc1ccc(O)c(-c2nc(-c3ncccc3C)no2)c1 [Compound 271, 4-Ethoxy-2-[3-(3-methyl-pyridin-2-yl)-[1,2,4]oxadiazol-5-yl]-phenol] | 0.61 µM |  | 
18 | Cc1ccccc1-c1nnc(-c2c(Cl)cccc2Cl)o1 [Compound 316, 2-(2,6-Dichloro-phenyl)-5-o-tolyl-[1,3,4]oxadiazole] | > 32 µM |  | 
19 | CCOc1cccc(-c2nc(-c3ncccc3Br)n[nH]2)c1O [Compound 489, 2-[5-(3-Bromo-pyridin-2-yl)-2H-[1,2,4]triazol-3-yl]-6-Ethoxy-phenol] |  |  | EC50 [2]: 22 µM
20 | Cc1cccnc1-c1n[nH]c(-c2cc(Br)ccc2O)n1 [Compound 449, 4-Bromo-2-(5-(3-methyl-pyridin-2-yl)-2H-[1,2,4]triazol-3-yl)-phenol] | 2.3 µM |  | 
21 | COc1ccc(OCc2ccccc2)c(-c2ccnn2-c2ccccn2)c1 [Compound 83, 2-[5-(2-Benzvloxy-5-methoxy-phenyl)-pvrazol-1-yl]-pyridine] |  | 31 µM | 
22 | COc1ccc(OCc2ccccc2)c(-c2ccn(Cc3ccc4ccccc4n3)n2)c1 [Compound 112, 2-[3-(2-Benzyloxy-5-methoxy-phenyl)-pyrazol-1-ylmethyl]-quinoline] |  | 6 µM | 
23 | COc1ccc(OC)c(-c2nc(-c3ccc(C(F)(F)F)cn3)no2)c1 [Compound 214, 2-[5-(2,5-Dimethoxy-phenyl)-[1,2,4]oxadiazol-3-yl]-5-trifluoromethyl-pyridine] | 18 µM | 18 µM | 

Row | SMILES | EC50 [1] | EC50 [3] | further results
24 | COc1ccc(O)c(-c2cc(-c3ncccc3C(F)(F)F)on2)c1 [Compound 129, 4-Methoxy-2-[5-(3-trifluoromethyl-pyridin-2-yl)-isoxazol-3-yl]-phenol] |  | 3.8 µM | 
25 | Oc1ccc(Cl)cc1-c1nc(-c2ncccc2C(F)(F)F)n[nH]1 [Compound 535, 4-Chloro-2-[5-(3-trifluoromethyl-pyridin-2-yl)-2H-[1,2,4]triazol-3-yl]-phenol] |  |  | EC50 [2]: 4.1 µM
26 | Cc1cccnc1-c1nc(-c2cc(O)ccc2O)n(C)n1 [Compound 616, 4-Hydroxy-2-[2-methyl-5-(3-methyl-pyridin-2-yl)-2H-[1,2,4]triazol-3-yl]-phenol] |  |  | EC50 [2]: 35.8 µM
27 | FC(F)(F)c1cccnc1-n1ccc(-c2cc(Br)ccc2OCc2ccccc2)n1 [Compound 108, 2-[3-(2-Benzyloxy-5-bromo-phenyl)-pyrazol-1-yl]-3-trifluoromethyl-pyridine] |  | > 32 µM | 
28 | COc1ccc(-c2nc(-c3cccc(C)n3)n[nH]2)c(O)c1 [Compound 401, 5-Methoxy-2-(5-(6-methyl-pyridin-2-yl)-2H-[1,2,4]triazol-3-yl)-phenol] | > 19 µM |  | 
29 | O=[N+]([O-])c1ccc(O)c(-c2nc(-c3cnccn3)n[nH]2)c1 [Compound 576, 4-Nitro-2-(5-pyrazin-2-yl-2H-[1,2,4]triazol-3-yl)-phenol] |  |  | EC50 [2]: 16 µM
30 | CCOc1ccc(-c2nc(-c3ncccc3-c3ccccc3)no2)c(O)c1 [Compound 234, 5-Ethoxy-2-[3-(3-phenyl-pyridin-2-yl)-[1,2,4]oxadiazol-5-yl]-phenol] | > 19 µM | > 19 µM | 
31 | CCOC(=O)c1cc(-c2ccc(OC)cc2)nn1-c1ncccc1[N+](=O)[O-] [Compound 60, 5-(4-Methoxy-phenyl)-2-(3-nitro-pyridin-2-yl)-2H-pyrazole-3-carboxylic acid ethyl ester] |  | > 32 µM | 
32 | Cc1cccc(-c2n[nH]c(-c3c(F)cccc3Cl)n2)n1 [Compound 469, 2-[5-(2-Fluoro-6-chloro-phenyl)-1H-[1,2,4]triazol-3-yl]-6-methyl-pyridine] | > 32 µM |  | 
33 | Oc1ccc(OC(F)(F)F)cc1-c1nc(-c2ccc(C(F)(F)F)cn2)no1 [Compound 287, 4-Trifluoromethoxy-2-[3-(5-trifluoromethyl-pyridin-2-yl)-[1,2,4]oxadiazol-5-yl]-phenol] | 1.7 µM |  | 
34 | Oc1ccc(O)c(-c2nc(-c3cnccc3C(F)(F)F)n[nH]2)c1 [Compound 426, 4-Hydroxy-2-[5-(4-trifluoromethyl-pyridin-3-yl)-2H-[1,2,4]triazol-3-yl]-phenol] | 12 µM |  | 
35 | COc1ccc(O)c(-c2ccn(Cc3ccccn3)n2)c1 [Compound 113, 4-Methoxy-2-(1-pyridin-2-ylmethyl-1H-pyrazol-3-yl)-phenol] |  | > 32 µM | 
36 | COc1ccc(-c2ccn(-c3ncccc3C(F)(F)F)n2)c(O)c1 [Compound 89, 5-Methoxy-2-[1-(3-trifluoromethyl-pyridin-2-yl)-1H-pyrazol-3-yl]-phenol] |  | 8.8 µM | 
37 | CC(C)(C)c1ccc(O)c(-c2nc(-c3ncccc3Br)n[nH]2)c1 [Compound 484, 2-[5-(3-Bromo-pyridin-2-yl)-2H-[1,2,4]triazol-3-yl]-4-tert-butyl-phenol] |  |  | EC50 [2]: 7.2 µM
38 | COc1cccc(-c2nc(-c3ncccc3Br)no2)c1O [Compound 257, 2-[3-(3-Bromo-pyridin-2-yl)-[1,2,4]oxadiazol-5-yl]-6-methoxy-phenol] | > 32 µM |  | 
39 | Oc1ccc(Cl)cc1-c1nc(-c2ccc(C(F)(F)F)cn2)no1 [Compound 218, 4-Chloro-2-[3-(5-trifluoromethyl-pyridin-2-yl)-[1,2,4]oxadiazol-5-yl]-phenol] | 18 µM | 18 µM | 
40 | Oc1ccc(Cl)cc1-c1nc(-c2cnccc2C(F)(F)F)n[nH]1 [Compound 415, 4-Chloro-2-[5-(4-trifluoromethyl-pyridin-3-yl)-2H-[1,2,4]triazol-3-yl]-phenol] | 14 µM |  | 
41 | Oc1ccc(O)c(-c2nc(-c3cnccn3)n[nH]2)c1 [Compound 588, 4-Hydroxy-2-(5-pyrazin-2-yl-2H-[1,2,4]triazol-3-yl)-phenol] |  |  | EC50 [2]: > 32 µM
42 | Cc1cccc(-c2n[nH]c(-c3cc([N+](=O)[O-])ccc3O)n2)n1 [Compound 392, 4-Nitro-2-(5-(6-methyl-pyridin-2-yl)-2H-[1,2,4]triazol-3-yl)-phenol] | > 19 µM |  | 
43 | CCN(CC)c1ccc(-c2nc(-c3cnccn3)n[nH]2)c(O)c1 [Compound 587, 5-Diethylamino-2-(5-pyrazin-2-yl-2H-[1,2,4]triazol-3-yl)-phenol] |  |  | EC50 [2]: 23 µM
44 | O=[N+]([O-])c1ccc(-c2nc(-c3ncccc3[N+](=O)[O-])no2)c(Cl)c1 [Compound 167, 2-[5-(2-Chloro-4-nitro-phenyl)-[1,2,4]oxadiazol-3-yl]-3-nitro-pyridine] |  |  | EC50 (Huh-7, 72 h): 12 µM
45 | COc1ccc(O)c(-c2ccn(-c3ncccc3C(F)(F)F)n2)c1 [Compound 86, 4-Methoxy-2-[1-(3-trifluoromethyl-pyridin-2-yl)-1H-pyrazol-3-yl]-phenol] |  | 7.8 µM | 
